Laboratory results published in patent US4024252A, “2-(5-Ethyl-6-bromothiazolo[3,2-b]-5-triazolyl)thiophosphonate esters, compositions and method of use” (priority 1973, dated 1977).
Values after ≈ are worked out from the molar mass of the structure shown. Read-outs that look alike come from different tables or passages of the source.

Legend:
[1] = test system: tobacco cutworms (Prodenia litura Fabricius); assay: Test 5 Test for Control of Tobacco cutworm; assay type: in vivo; details: 72 h, 3 days; for mortality at 31.3 ppm: 31.3 p.p.m.; for mortality at 62.5 ppm: 62.5 p.p.m.; for mortality at 125 ppm: 125 p.p.m.
Experimental: Then the leaf and 5 tobacco cutworms (Prodenia litura Fabricius) of 3 stages larva were put into a covered dish.
The test was carried out twice. After 3 days from inoculation, dead insects were counted and mortality (%) was calculated.

[2] = Toxicity Test 2, medium tolerated limit in carp; assay type: in vivo, Cyprinus carpio; details: water
Experimental: The test compound was dissolved in dimethylformamide and said solution was added to 20 liters of water containing 10 carps (Cyprinus carpio) in a fixed concentration.
Dead fish within 48 hours from the addition of test compounds was counted.
The results were shown in Table 8 as medium tolerated limit (TLm).
*TLm is the concentration of test compound which half the number of fish

[3] = test system: Cabbage armyworm (Leucania separate Walker); assay: Test 2 Insecticidal Activity against Cabbage armyworm; assay type: in vivo
Experimental: 10 Multigeneration bred armyworms (Leucania separate Walker) were used for one experimental zone.
[…] Then the leaf was set an filter paper having 9 cm diameter in a schale. The test insects were inoculated into the dish and the cover was put on it. After 1 day and 3 days from inoculation, dead insects were counted and mortality (%) were calculated. The results were shown in

[4] = test system: northern house mosquito (Culex pipiens molestus Forskal); assay: Test 6 Insecticidal Activity against Mosquito; assay type: in vivo; details: 24 hours after inoculation, aqueous suspension of wettable powder
Experimental: An aqueous suspension of formulated wettable powder were poured in 200 ml beaker and in which 20 northern house mosquito (Culex pipiens molestus Forskal) were inoculated.

[5] = test system: desert spider mite (Tetranychus desertorum Banks); assay: Test 3 Test for Control of Mite; assay type: in vivo; details: 72 h, read-out: Rating of mortality
Experimental: About 30 adult female mites of desert spider mite (Tetranychus desertorum Banks) laid on main leaves of the potted kidney bean plants grown 7 to 10 days stage after aprouting. One day later, the wounded mites were removed from the plants. The compounds to be tested were sprayed on the plants as water suspension of emulsifiable concentrate prepared by the method of Example 6. After 1 day and 3 days from spraying, dead mites were counted and mortality (%) was calculated.

[6] = test system: Rice stem borer (Chilo suppressalis Walker); assay: Test 4 Insecticidal Activity against Rice stem borer; assay type: in vivo; details: 168 h, a week after spraying
Experimental: 20 hatched nymph of Rice stem borer (Chilo suppressalis Walker) were inoculated to the potted rice (height: 30 - 40 cm, number: 4/pot). A week after inoculation, 30 ml of fixed concentration of solution containing test compound were sprayed on the rice in which hatched nymph were inhabiting and the pots were kept at the room temperature. A week after spraying, the rice was opened, dead Rice stem borers were counted and mortality (%) was calculated.

[7] = Toxicity Test 1, acute oral toxicity; details: in vivo, mouse; for LD50: oral; for LD50 at 336 h: po, mice, stomach tube, 25% aqueous gum arabic, 2 weeks (Table 7)
Description: Suspension of the test compound in 25% aqueous solution of gum arabic was compulsorily treated to six mice by means of a stomack tube and inspection had been made for 2 weeks.

[8] = test system: house flies (Musca domestica Linne); assay: Test 1 Insecticidal Activity against Fly; assay type: in vivo; details: topical; for mortality at 0.25 µg/fly: 0.25γ/a fly; for mortality at 0.5 µg/fly: 0.5γ/a fly
Experimental: Fixed concentration of acetone solution containing test compound were prepared.
20 pieces of female adults of house flies (Musca domestica Linne) were tested with 1 μl of acetone solution at their thoracie dorsal by microcylinge and kept at a temperature of 25° C and at a humidity of 65%. 24 hours and 48 hours after treatment, dead flies were counted and mortality (%) was calculated.

[9] = 48 hours (Table 8), read-out: TLm (medium tolerated limit)
[10] = 48 hrs, read-out: medium tolerance limit (48 hrs) for carp

Row | Structure (SMILES) | LC50 at 48 h [2, 9] | mortality at 15.7 ppm ([3]; 24 h) | mortality at 7.8 ppm ([3]; 24 h, 1 day) | mortality at 31.3 ppm ([3]; 24 h, 1 day) | mortality at 15.7 ppm ([3]; 72 h) | mortality at 7.8 ppm ([3]; 72 h, 3 days) | mortality at 31.3 ppm ([3]; 72 h, 3 days) | mortality at 500 ppm [5] | LD50 [7] | LD50 at 336 h [7] | also measured
1 | CCOP(=S)(OCC)Oc1nc2scc(C)n2n1 [Comparison compound, O,O-diethyl-2-(5-methylthiazolo[3,2-b]-s-triazolyl)thionophosphate, reference compound] | < 0.5 µg/mL | 30% | 0% | 70% | 80% | 0% | 100% | 100% | 33 to 50 mg/kg | 33 to 50 mg/kg | mortality at 31.3 ppm [1]: 0%; mortality at 62.5 ppm [1]: 80%; mortality at 125 ppm [1]: 100%; LC50 [4]: 0.04 µg/mL (≈ 0.13 µM); mortality at 15.6 ppm ([6]; 15.6 ppm): 84%; mortality at 31.3 ppm [6]: 100%; mortality at 0.25 µg/fly ([8]; 24 hrs.): 0%; mortality at 0.25 µg/fly ([8]; 48 hrs.): 10%; mortality at 0.5 µg/fly ([8]; 24 hrs.): 70%; mortality at 0.5 µg/fly ([8]; 48 hrs.): 70%
2 | CCc1c(Br)sc2nc(OP(=S)(OC)OC)nn12 [Example 1, O,O-Dimethyl 2-(5-ethyl-6-bromothiazolo[3,2-b]s-triazolyl) thionophosphate] | – | 60% | 50% | 100% | 100% | 90% | 100% | 100% | – | – | –
3 | CCOP(=S)(OCC)Oc1nc2sc(Br)c(CC)n2n1 [Example 2, O,O-Diethyl 2-(5-ethyl-6-bromothiazolo[3,2-b]-s-triazolyl) thionophosphate] | – | 90% | 60% | 100% | 100% | 100% | 100% | 100% | 280 mg/kg | 280 mg/kg | mortality at 15.6 ppm ([1]; 15.6 p.p.m.): 60%; mortality at 31.3 ppm [1]: 80%; mortality at 62.5 ppm [1]: 100%; mortality at 125 ppm [1]: 100%; LC50 at 48 h [2, 10]: 18.5 µg/mL; LC50 [4]: 0.003 µg/mL (≈ 0.0075 µM); mortality at 7.8 ppm ([6]; 7.8 ppm): 91%; mortality at 31.3 ppm [6]: 100%; mortality at 0.25 µg/fly ([8]; 24 hrs.): 30%; mortality at 0.25 µg/fly ([8]; 48 hrs.): 40%; mortality at 0.5 µg/fly ([8]; 24 hrs.): 100%; mortality at 0.5 µg/fly ([8]; 48 hrs.): 100%
4 | CCc1c(Br)sc2nc(OP(=S)(OC(C)C)OC(C)C)nn12 [Example 3, O,O-diisopropyl 2-(5-ethyl-6-bromothiazolo[3,2-b]-s-triazolyl)thionophosphate] | – | 60% | 50% | 100% | 100% | 90% | 100% | – | – | – | –
5 | CCOP(=S)(OCC)Oc1nc2sc(Br)c(C)n2n1 [O,O-diethyl-2-(5-methyl-6-bromothiazolo[3,2-b]-s-triazolyl)thionophosphate, reference compound] | – | – | – | – | – | – | – | – | 150 mg/kg | – | LC50 at 48 h [2, 10]: < 0.05 µg/mL
6 | CCc1c(Br)sc2nc(OP(=S)(OC)OC)nn12 [drawing 11] | – | – | – | – | – | – | – | – | – | > 200 mg/kg | –
7 | CCc1c(Br)sc2nc(OP(=S)(OC(C)C)OC(C)C)nn12 [drawing 12] | – | – | – | – | – | – | – | – | – | > 200 mg/kg | –
8 | CCc1c(Br)sc2nc(OP(=S)(OC)OC)nn12 [drawing 15] | > 5 µg/mL | – | – | – | – | – | – | – | – | – | –
9 | CCc1c(Br)sc2nc(OP(=S)(OC(C)C)OC(C)C)nn12 [drawing 16] | > 5 µg/mL | – | – | – | – | – | – | – | – | – | –
